This is an account of results in patent US8410107B2, “N-pyridin-3-yl or N-pyrazin-2-yl carboxamides” (Hoffmann-La Roche Inc., priority 2010, dated 2013).

For one assay, the target named is T1, human CB2 receptor (Homo sapiens, UniProt P34972).
T1 construct: expressed in transfected cells; host or cells: human embryonic kidney (HEK) cells, Semliki Forest Virus system, membrane preparations
Kind of assay: CB2 receptor affinity ([3H]-CP-55,940 displacement, HEK cell membranes). It counts as binding. Particulars: displacement of radioligand [3H]-CP-55,940. How it is done:
The affinity of the compounds of the invention for cannabinoid CB2 receptors was determined using membrane preparations of human embryonic kidney (HEK) cells in which the human CB2 receptor is transiently transfected using a Semliki Forest Virus system in conjunction with [^3H]-CP-55,940 as radioligand. After incubation of freshly prepared cell membrane preparation with the [^3H]-ligand, with or without addition of compounds of the invention, separation of bound and free ligand was performed by filtration over glass fiber filters. Radioactivity on the filter was measured by scintillation counting.
(§1) The ability of the compounds to displace the radioligand [^3H]-CP-55,940 was measured at a concentration of 10 μM and values provided as [% inhibition @ 10 μM] both for the CB1 and CB2 receptor assay, The lower % inhibition is, the lower the likelihood of side effects based on CB1 or CB2 receptor inhibition is.

The target in a further assay is T2, human CB1 receptor (Homo sapiens, UniProt P21554).
T2 construct: expressed in transfected cells; host or cells: human embryonic kidney (HEK) cells, Semliki Forest Virus system, membrane preparations
T2 sequence (P21554 whole entry): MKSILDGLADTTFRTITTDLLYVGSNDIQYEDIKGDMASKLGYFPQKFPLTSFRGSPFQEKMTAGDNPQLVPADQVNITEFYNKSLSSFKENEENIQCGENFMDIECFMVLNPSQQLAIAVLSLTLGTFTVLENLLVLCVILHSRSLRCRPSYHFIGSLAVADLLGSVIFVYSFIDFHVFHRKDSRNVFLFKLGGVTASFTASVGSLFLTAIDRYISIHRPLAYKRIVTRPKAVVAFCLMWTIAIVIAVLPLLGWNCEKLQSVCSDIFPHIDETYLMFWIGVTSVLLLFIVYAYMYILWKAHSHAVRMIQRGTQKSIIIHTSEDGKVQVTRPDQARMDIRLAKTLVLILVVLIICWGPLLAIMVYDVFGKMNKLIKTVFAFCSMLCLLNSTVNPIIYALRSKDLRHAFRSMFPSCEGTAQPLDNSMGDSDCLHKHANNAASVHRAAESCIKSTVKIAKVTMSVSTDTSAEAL
Kind of assay: CB1 receptor affinity ([3H]-CP-55,940 displacement, HEK cell membranes). It counts as binding. Particulars: displacement of radioligand [3H]-CP-55,940. How it is done:
The affinity of the compounds of the invention for cannabinoid receptors was determined using membrane preparations of human embryonic kidney (HEK) cells in which the human CB1 receptor is transiently transfected using a Semliki Forest Virus system in conjunction with [3H]-CP-55,940 as radioligand. After incubation of freshly prepared cell membrane preparation with the [^3H]-ligand, with or without addition of compounds of the invention, separation of bound and free ligand was performed by filtration over glass fiber filters. Radioactivity on the filter was measured by scintillation counting.
as §1

A further assay concerns ABCA1 protein. Kind of assay: Detection of upregulation of ABCA1 protein in cells (ApoA-I binding, high content image analysis). The assay is classed as cell-based. Particulars: THP-1 macrophage cells; for % increase of ABCA1 at 3 μM: 24 hrs with compound; for EC50: ABCA1 protein increasing efficacy. How it is done: The ability of compounds of the invention to increase the level of ABCA1 protein is determined in replicate cultures of THP-1 macrophage cells in 96-well microplates. Cells are plated at an initial density of 100,000 cells/well in 100 μl medium and differentiated to adherent macrophages with the addition of PMA (100 nM) for 68 hrs in 10% fetal bovine serum, 3 μl/L of b-mercaptoethanol, RPMI-1640 medium. Then, cells are incubated with RPMI-1640 medium containing 1% FCS, 25 μg/ml acetylated LDL, for 24 hours at 37°. Following incubation with acetylated LDL, cells are washed twice with 50 μl PBS and incubated with 100 μl of RPMI-1640 medium containing the compound of interest solubilized in DMSO for an additional 24 hrs. The final DMSO concentration in presence of cells is maintained at 0.5%. ApoA-I binding assay using High Content Image Analysis is initiated by replacing with fresh medium, RPMI without Phenol Red, 0.2% BSA containing AlexaFluor®647 labeled ApoA-I for 2 h/37° C./5% CO2. Then, cells are fixed with 4% Formaldehyde inPBS (15 min, RT). Following Nuclei are stained with Hoechst solution (3 μM PBS) and Cytoplasm with Cell Mask Blue (2 μg/ml PBS), 15 min, RT. Finally the stained cells are fixed with a second round of formaldehyde treatment. Fixed stained cells are washed and kept in PBS at 4° C. and can be read immediately until one month after preparation.
The Alexa Fluor 647-labeled Apolipoprotein A-I (20 nM) was prepared as follows: Human recombinant Apolipoprotein A-I (ApoA-I) was exchanged to a buffer of 0.02 M NaHCO3 at pH 8.2 on an NAP desalting column (GE Healthcare) and brought to a concentration to 40 μM (1.13 mg/ml) by adjustment with the same buffer. The ApoA-I was fluorescently labeled by incubation with Alexa Fluor carboxylic acid succimidyl ester. (Alexa Fluor 647, Invitrogen A-20006) at a 2:1 molar ratio (Alexa to ApoA-I) for 1 h under shaking at RT. The remaining unconjugated label was removed by buffer exchange to 0.02M NaHCO3 at pH 8.2.
Imaging and data collection were performed on an OPERA confocal microplate imaging reader using a 20× water immersion objective and UV360 or 405 laser to identify the cell nuclei and a 635 laser to identify the fluorescent ApoA-I. Eight fields of view are captured per well. Image capture and analysis was performed with the Acapella software. Background fluorescence detected in control wells without ApoA-I was subtracted.
Using XLfit3 program (ID Business Solutions Ltd. UK), the model 205 for Dose Response One Site is used to calculate the EC50 values. The compounds of the present invention increase the level of ABCA1 protein by more than 45% at a concentration of 3 μM. […] Even more preferably, the compounds of the present invention have EC50 values in a range of 0.1 μM to 3 μM.

T1 sequence (P34972 whole entry): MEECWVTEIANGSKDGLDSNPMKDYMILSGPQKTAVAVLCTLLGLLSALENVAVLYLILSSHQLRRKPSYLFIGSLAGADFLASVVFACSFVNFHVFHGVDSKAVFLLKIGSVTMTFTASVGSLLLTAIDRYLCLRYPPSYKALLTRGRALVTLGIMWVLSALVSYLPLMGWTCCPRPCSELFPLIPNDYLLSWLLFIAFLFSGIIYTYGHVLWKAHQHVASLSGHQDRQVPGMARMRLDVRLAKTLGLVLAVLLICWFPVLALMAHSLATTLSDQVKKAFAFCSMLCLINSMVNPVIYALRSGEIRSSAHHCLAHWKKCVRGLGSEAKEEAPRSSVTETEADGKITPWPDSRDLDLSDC

Take `O=C(Nc1cnc(OCC(F)(F)F)c(-c2ccc(Cl)cc2)c1)c1cnccn1` [Example 12, pyrazine-2-carboxylic acid[5-(4-chloro-phenyl)-6-(2,2,2-trifluoro-ethoxy)-pyridin-3-yl]-amide]: the inhibition at 10 µM worked out at 4% at human CB2 receptor and 22% on human CB1 receptor. Also, the “% increase of ABCA1 at 3 μM” value with ABCA1 protein is reported as >45% @ 3 μM.

For `O=C(Nc1cnc(OCC(F)(F)F)c(-c2ccc(Cl)cc2)c1)c1cccnn1` [Example 17, 3-pyridazinecarboxylic acid[5-(4-chloro-phenyl)-6-(2,2,2-trifluoro-ethoxy)-pyridin-3-yl]-amide], the inhibition at 10 µM on human CB2 receptor is -3%; on human CB1 receptor, 16%. In addition, a half-maximal effect with ABCA1 protein (EC50) was put at 2310 nM.

As to `Cc1ccc(-c2cc(NC(=O)c3cccnc3)cnc2OCC(F)(F)F)cc1C` [Example 38, N-(5-(3,4-dimethylphenyl)-6-(2,2,2-trifluoroethoxy)pyridin-3-yl)nicotinamide], the inhibition at 10 µM at human CB2 receptor was 15%; at human CB1 receptor, 12%. The compound further came in with an EC50 in the assay with ABCA1 protein of 2910 nM.

With `Cc1cc(C(=O)Nc2cnc(OCC(F)(F)F)c(-c3ccc(Cl)cc3)c2)n(C)n1` [Example 13, 2,5-dimethyl-2H-pyrazole-3-carboxylic acid[5-(4-chloro-phenyl)-6-(2,2,2-trifluoro-ethoxy)-pyridin-3-yl]-amide], the inhibition at 10 µM at human CB2 receptor turned out to be 3%; on human CB1 receptor, 16%. In addition, the “% increase of ABCA1 at 3 μM” value in the assay on ABCA1 protein was >45% @ 3 μM.

Take `Cc1nocc1C(=O)Nc1cnc(OCC(F)(F)F)c(-c2ccc(Cl)cc2)c1` [Example 14, 3-methyl-isoxazole-4-carboxylic acid[5-(4-chloro-phenyl)-6-(2,2,2-trifluoro-ethoxy)-pyridin-3-yl]-amide]: the inhibition at 10 µM at human CB2 receptor was 10%; on human CB1 receptor, 38%. Further, the “% increase of ABCA1 at 3 μM” value in the assay with ABCA1 protein was >45% @ 3 μM.

Take `Cc1cc(-c2cc(NC(=O)c3c(F)ccnc3F)cnc2OCC(F)(F)F)ccc1Cl` [Example 59, N-(5-(4-chloro-3-methylphenyl)-6-(2,2,2-trifluoroethoxy)pyridin-3-yl)-2,4-difluoronicotinamide]: the inhibition at 10 µM on human CB2 receptor is 18%; at human CB1 receptor, 22%. For the same compound, in the assay with ABCA1 protein, the concentration giving a half-maximal response (EC50) was 3900 nM.

As for `O=C(Nc1cnc(OCC(F)(F)F)c(-c2ccc(Cl)cc2)c1)c1ccns1` [Example 22, 5-isothiazolecarboxylic acid[5-(4-chloro-phenyl)-6-(2,2,2-trifluoro-ethoxy)-pyridin-3-yl]-amide], the inhibition at 10 µM at human CB2 receptor came out at 8%; at human CB1 receptor, 45%. Besides, the “% increase of ABCA1 at 3 μM” value in the assay on ABCA1 protein was >45% @ 3 μM.

On to `C[C@H](Oc1ncc(NC(=O)c2cccnc2)cc1-c1ccc(Cl)cc1)C(F)(F)F` [Example 43, (S)-N-(5-(4-chlorophenyl)-6-(1,1,1-trifluoropropan-2-yloxy)pyridin-3-yl)nicotinamide], for which the inhibition at 10 µM on human CB2 receptor is 6%; at human CB1 receptor it was 31%. In the assay on ABCA1 protein, the concentration for a half-maximal effect (EC50) is 5950 nM.

In the case of `Cc1ccc(C(=O)Nc2cnc(OCC(F)(F)F)c(-c3ccc(Cl)cc3)c2)o1` [Example 68, N-(5-(4-chlorophenyl)-6-(2,2,2-trifluoroethoxy)pyridin-3-yl)-5-methylfuran-2-carboxamide], the inhibition at 10 µM on human CB2 receptor worked out at 4%; on human CB1 receptor, 26%. For the same compound, in the assay with ABCA1 protein, the “% increase of ABCA1 at 3 μM” value is given as >45% @ 3 μM.

As to `O=C(Nc1cnc(OCC(F)(F)F)c(-c2ccc(Cl)cc2)c1)c1ccncc1` [Example 4, N-[5-(4-chloro-phenyl)-6-(2,2,2-trifluoro-ethoxy)-pyridin-3-yl]-isonicotinamide], the results for the inhibition at 10 µM on human CB2 receptor and at human CB1 receptor were 1.9% and 36%, respectively. In addition, the “% increase of ABCA1 at 3 μM” value in the assay on ABCA1 protein is on record as >45% @ 3 μM.

As to `Cc1cnc(C(=O)Nc2cnc(OCC(F)(F)F)c(-c3ccc(Cl)cc3)c2)s1` [Example 26, 5-methyl-2-thiazole-carboxylic acid[5-(4-chloro-phenyl)-6-(2,2,2-trifluoro-ethoxy)-pyridin-3-yl]-amide], the inhibition at 10 µM on human CB2 receptor was 11%; at human CB1 receptor, 37%. Besides, the “% increase of ABCA1 at 3 μM” value in the assay with ABCA1 protein is >45% @ 3 μM.

`Cc1cc(C(=O)Nc2cnc(OCC(F)(F)F)c(-c3ccc(Cl)cc3)c2)no1` [Example 16, 5-methyl-3-isoxazolecarboxylic acid[5-(4-chloro-phenyl)-6-(2,2,2-trifluoro-ethoxy)-pyridin-3-yl]-amide]: the inhibition at 10 µM on human CB2 receptor was -1%; on human CB1 receptor it was 34%. The compound also came in with a concentration giving a half-maximal response (EC50) with ABCA1 protein of 6050 nM.

With `Cc1cccnc1C(=O)Nc1cnc(OCC(F)(F)F)c(-c2ccc(Cl)cc2)c1` [Example 36, 3-methyl-2-pyridinecarboxylic acid[5-(4-chloro-phenyl)-6-(2,2,2-trifluoro-ethoxy)-pyridin-3-yl]-amide], the inhibition at 10 µM turned out to be 2% at human CB2 receptor and 18% at human CB1 receptor. The same compound had an EC50 with ABCA1 protein of 510 nM.

In the case of `Cc1cncc(C(=O)Nc2cnc(OCC(F)(F)F)c(-c3ccc(Cl)cc3)c2)c1` [Example 41, N-(5-(4-chlorophenyl)-6-(2,2,2-trifluoroethoxy)pyridin-3-yl)-5-methylnicotin-amide], the results for the inhibition at 10 µM on human CB2 receptor and on human CB1 receptor were 8% and 31%, respectively. Further, in the assay on ABCA1 protein, the “% increase of ABCA1 at 3 μM” value is >45% @ 3 μM.

On to `COc1cncc(C(=O)Nc2cnc(OCC(F)(F)F)c(-c3ccc(Cl)cc3)c2)c1` [Example 77, N-(5-(4-chlorophenyl)-6-(2,2,2-trifluoroethoxy)pyridin-3-yl)-5-methoxynicotinamide], for which the inhibition at 10 µM at human CB2 receptor came to 16%; on human CB1 receptor, 33%. For the same compound, the EC50 in the assay on ABCA1 protein was determined as 720 nM.

For the compound `Cc1cc(C(=O)Nc2cnc(OCC(F)(F)F)c(-c3ccc(Cl)cc3)c2)ccn1` [Example 25, N-[5-(4-chloro-phenyl)-6-(2,2,2-trifluoro-ethoxy)-pyridin-3-yl]-2-methyl-4-pyridinecarboxylic acid amide], the inhibition at 10 µM at human CB2 receptor is -1%; at human CB1 receptor, 25%. Also, the midpoint of the response in the assay with ABCA1 protein, the EC50, lay at 2650 nM.

For the compound `CC(=O)Nc1cnc(OCC(F)(F)F)c(-c2ccc(Cl)cc2)c1` [Example 5, N-[5-(4-chloro-phenyl)-6-(2,2,2-trifluoro-ethoxy)-pyridin-3-yl]-acetamide], the inhibition at 10 µM at human CB2 receptor is -5.4%; at human CB1 receptor, 19%. Also, the “% increase of ABCA1 at 3 μM” value in the assay with ABCA1 protein is listed as >45% @ 3 μM.

`O=C(Nc1cnc(OCC2CC2)c(-c2ccc(Cl)cc2)c1)c1cccnc1` [Example 10, N-[5-(4-chloro-phenyl)-6-cyclopropylmethoxy-pyridin-3-yl]-nicotinamide]: the inhibition at 10 µM is 28% on human CB2 receptor and 36% at human CB1 receptor. This compound came in with a concentration giving a half-maximal response (EC50) in the assay with ABCA1 protein of 6510 nM.

For `Cc1nnsc1C(=O)Nc1cnc(OCC(F)(F)F)c(-c2ccc(Cl)cc2)c1` [Example 27, 4-methyl-1,2,3-thiadiazole-5-carboxylic acid[5-(4-chloro-phenyl)-6-(2,2,2-trifluoro-ethoxy)-pyridin-3-yl]-amide], the results for the inhibition at 10 µM at human CB2 receptor and on human CB1 receptor were 10% and 47%, respectively. The “% increase of ABCA1 at 3 μM” value in the assay with ABCA1 protein is >45% @ 3 μM.

As usually defined, the inhibition is the change of the read-out against control, counted positive when it falls. By EC50 is commonly meant the concentration at which the effect is half-maximal.
